We go through 13 molecules from ChEMBL document CHEMBL1136728, “Antitumor activity of novel deoxoartemisinin monomers, dimers, and trimer” (J Med Chem, 2003).

Values after ≈ are worked out from the molar mass of the structure shown.

What all share (format): functional, cell-based
One experiment has as its system EL4. The experiment in a line: In vitro cytotoxicity of compound against EL4, mouse thymoma was defined by microculture tetrazolium assay.
For a further experiment, the system named is MCF7. The experiment in a line: In vitro cytotoxicity of compound against MCF7, human breast cancer was defined by microculture tetrazolium assay.
The next experiment deals with HT-29. The experiment in a line: In vitro cytotoxicity of compound against HT29, human colorectal adenocarcinoma was defined by microculture tetrazolium assay.
In the next experiment the test system is BeWo. As to the kind of experiment: In vitro cytotoxicity of compound against Bewo, human choriocarcinoma was defined by microculture tetrazolium assay.
The test system of the next experiment is P388. The experiment in a line: In vitro cytotoxicity of compound against P388, mouse […] leukemia was defined by microculture tetrazolium assay.

For `C[C@H]1[C@@H](CCNC(=O)CC[C@H]2O[C@@H]3O[C@]4(C)CC[C@H]5[C@H](C)CC[C@@H]([C@H]2C)[C@]35OO4)O[C@@H]2O[C@]3(C)CC[C@H]4[C@H](C)CC[C@@H]1[C@]24OO3`, the IC50 (as a rule, the concentration needed to halve the response being measured) in the experiment on EL4 is 6.29 µg/mL (≈ 9.92 µM); with MCF7, 0.005 µg/mL (≈ 0.00789 µM); in the experiment with HT-29, 0.69 µg/mL (≈ 1.09 µM); in the experiment on BeWo, 7.5 µg/mL (≈ 11.8 µM); with P388, 10.4 µg/mL (≈ 16.4 µM).

With `C[C@H]1[C@@H](CCSCC[C@H]2O[C@@H]3O[C@]4(C)CC[C@H]5[C@H](C)CC[C@@H]([C@H]2C)[C@]35OO4)O[C@@H]2O[C@]3(C)CC[C@H]4[C@H](C)CC[C@@H]1[C@]24OO3`, the IC50 with EL4 was determined as 0.23 µg/mL (≈ 0.369 µM); in the experiment with MCF7 it was 0.017 µg/mL (≈ 0.0273 µM); with HT-29, 0.24 µg/mL (≈ 0.385 µM); with BeWo, 14.2 µg/mL (≈ 22.8 µM); in the experiment with P388 it was 0.4 µg/mL (≈ 0.642 µM).

In the case of `C[C@H]1[C@@H](CCS(=O)(=O)CC[C@H]2O[C@@H]3O[C@]4(C)CC[C@H]5[C@H](C)CC[C@@H]([C@H]2C)[C@]35OO4)O[C@@H]2O[C@]3(C)CC[C@H]4[C@H](C)CC[C@@H]1[C@]24OO3`, the half-maximal inhibitory concentration (IC50) with EL4 was 0.54 µg/mL (≈ 0.825 µM); in the experiment with MCF7, 0.025 µg/mL (≈ 0.0382 µM); in the experiment on HT-29, 0.38 µg/mL (≈ 0.58 µM); with BeWo, 1.04 µg/mL (≈ 1.59 µM); in the experiment with P388 it was 5.6 µg/mL (≈ 8.55 µM).

On to `C[C@H]1[C@@H](CCS(=O)(=O)CCCS(=O)(=O)CC[C@H]2O[C@@H]3O[C@]4(C)CC[C@H]5[C@H](C)CC[C@@H]([C@H]2C)[C@]35OO4)O[C@@H]2O[C@]3(C)CC[C@H]4[C@H](C)CC[C@@H]1[C@]24OO3`, for which the IC50 in the experiment on EL4 worked out at 10 µg/mL (≈ 13.1 µM); in the experiment with MCF7 it was 5.6 µg/mL (≈ 7.36 µM); in the experiment with HT-29, 0.38 µg/mL (≈ 0.499 µM); in the experiment on BeWo it was 8.5 µg/mL (≈ 11.2 µM); with P388 it was 8.4 µg/mL (≈ 11 µM).

Take `C[C@H]1[C@@H](CCCCNC(=O)CC[C@H]2O[C@@H]3O[C@]4(C)CC[C@H]5[C@H](C)CC[C@@H]([C@H]2C)[C@]35OO4)O[C@@H]2O[C@]3(C)CC[C@H]4[C@H](C)CC[C@@H]1[C@]24OO3`: the IC50 is > 20 µg/mL in the experiment with EL4; > 20 µg/mL with MCF7; 20.2 µg/mL (≈ 30.5 µM) in the experiment on HT-29; > 20 µg/mL with BeWo; > 20 µg/mL in the experiment with P388.

In the case of `C[C@H]1[C@@H](CCCCN=[N+]=[N-])O[C@@H]2O[C@]3(C)CC[C@H]4[C@H](C)CC[C@@H]1[C@]24OO3`, the IC50 in the experiment with EL4 is 1.61 µg/mL (≈ 4.41 µM); in the experiment on MCF7, 11.6 µg/mL (≈ 31.7 µM); in the experiment with HT-29, 2.76 µg/mL (≈ 7.55 µM); in the experiment with BeWo, > 20 µg/mL; in the experiment on P388, 10.3 µg/mL (≈ 28.2 µM).

Turning to `C[C@H]1[C@@H](CCCCN)O[C@@H]2O[C@]3(C)CC[C@H]4[C@H](C)CC[C@@H]1[C@]24OO3`, the IC50 in the experiment on EL4 was 5.63 µg/mL (≈ 16.6 µM); with MCF7, 0.02 µg/mL (≈ 0.0589 µM); in the experiment with HT-29, 2.2 µg/mL (≈ 6.48 µM); in the experiment with BeWo, > 20 µg/mL; with P388, 6.18 µg/mL (≈ 18.2 µM).

For `C[C@H]1[C@@H](CCNC(=O)CC[C@H](N)C(=O)NCC[C@H]2O[C@@H]3O[C@]4(C)CC[C@H]5[C@H](C)CC[C@@H]([C@H]2C)[C@]35OO4)O[C@@H]2O[C@]3(C)CC[C@H]4[C@H](C)CC[C@@H]1[C@]24OO3`, the IC50 is 16.5 µg/mL (≈ 22.5 µM) in the experiment with EL4; 15.3 µg/mL (≈ 20.8 µM) in the experiment on MCF7; 6.5 µg/mL (≈ 8.86 µM) in the experiment with HT-29; > 20 µg/mL in the experiment with BeWo; 15.6 µg/mL (≈ 21.3 µM) in the experiment on P388.

In the case of `C[C@H]1[C@@H](CCNC(=O)CC[C@H](NC(=O)CC[C@H]2O[C@@H]3O[C@]4(C)CC[C@H]5[C@H](C)CC[C@@H]([C@H]2C)[C@]35OO4)C(=O)NCC[C@H]2O[C@@H]3O[C@]4(C)CC[C@H]5[C@H](C)CC[C@@H]([C@H]2C)[C@]35OO4)O[C@@H]2O[C@]3(C)CC[C@H]4[C@H](C)CC[C@@H]1[C@]24OO3`, the IC50 in the experiment with EL4 came out at 1.07 µg/mL (≈ 1.01 µM); in the experiment on MCF7, 0.017 µg/mL (≈ 0.0161 µM); in the experiment with HT-29, 0.09 µg/mL (≈ 0.0852 µM); in the experiment with BeWo, 18.3 µg/mL (≈ 17.3 µM); in the experiment on P388 it was 0.12 µg/mL (≈ 0.114 µM).

On to `C[C@H]1[C@@H](CCC(=O)N[C@@H](CCC(=O)O)C(=O)O)O[C@@H]2O[C@]3(C)CC[C@H]4[C@H](C)CC[C@@H]1[C@]24OO3`, for which the IC50 was > 20 µg/mL with EL4; 13.4 µg/mL (≈ 28.5 µM) with MCF7; 8.6 µg/mL (≈ 18.3 µM) in the experiment with HT-29; > 20 µg/mL in the experiment on BeWo; > 20 µg/mL in the experiment on P388.

As to `COc1cccc2c1C(=O)c1c(O)c3c(c(O)c1C2=O)C[C@@](O)(C(=O)CO)C[C@@H]3O[C@H]1C[C@H](N)[C@H](O)[C@H](C)O1` [DOXORUBICIN], the IC50 was 0.67 µg/mL (≈ 1.23 µM) in the experiment with EL4, 0.1 µg/mL (≈ 0.184 µM) in the experiment with HT-29, 6.24 µg/mL (≈ 11.5 µM) with BeWo and 0.39 µg/mL (≈ 0.718 µM) in the experiment on P388.

As for `CO[C@@]12[C@H](COC(N)=O)C3=C(C(=O)C(C)=C(N)C3=O)N1C[C@@H]1N[C@@H]12` [MITOMYCIN], the IC50 with EL4 amounted to 3.94 µg/mL (≈ 11.8 µM); with MCF7, 0.93 µg/mL (≈ 2.78 µM); in the experiment with HT-29, 0.02 µg/mL (≈ 0.0598 µM); with BeWo, 0.85 µg/mL (≈ 2.54 µM); in the experiment with P388, 1.5 µg/mL (≈ 4.49 µM).

Take `CC(=O)O[C@H]1C(=O)[C@@]2(C)[C@H]([C@H](OC(=O)c3ccccc3)[C@]3(O)C[C@H](OC(=O)[C@H](O)[C@@H](NC(=O)c4ccccc4)c4ccccc4)C(C)=C1C3(C)C)[C@]1(OC(C)=O)CO[C@@H]1C[C@@H]2O` [PACLITAXEL]: the IC50 in the experiment with EL4 turned out to be 1.34 µg/mL (≈ 1.57 µM); in the experiment with HT-29, 0.01 µg/mL (≈ 0.0117 µM); with BeWo, 7.39 µg/mL (≈ 8.65 µM); in the experiment with P388, 2.27 µg/mL (≈ 2.66 µM).
